Assays:
[1] = tested on: PC3 prostate carcinoma; experiment: Cell growth under prolonged exposure to RT inhibitors; assay type: cell-based, Human; settings: for reversibility of growth inhibition: after removal of RT inhibitors, within one or two 96 h-cycles; for cell growth: nevirapine 350 μM, efavirenz 15 μM, five 96 h-cycles
Procedure: (§1) Human A-375 melanoma (ATCC-CRL-1619), TVM-A12 primary melanoma-derived (20), HT29 adenocarcinoma (ATCC HTB-38), H69 small cell lung carcinoma (SCLC) (ATCC HTB119), and PC3 prostate carcinoma (ATCC CRL-1435) cell lines were seeded in six-well plates at a density of 10^4 to 5×10^4 cells/well and cultured in DMEM or RPMI1640 medium with 10% fetal bovine serum. Nevirapine and Efavirenz were purified from commercially available Viramune (Boehringer-Ingelheim) and Sustiva (Bristol-Myers Squibb) as described (18). The drugs were made 350 and 15 μM in dimethyl sulfoxide (DMSO, Sigma-Aldrich), respectively, and added to cells 5 h after seeding; the same DMSO volume (0.2% final concentration) was added to controls. Fresh RT inhibitor-containing medium was changed every 48 h. Cells were harvested every 96 h, counted in a Burker chamber (two countings/sample) and replated at the same density.

[2] = tested on: TVM-A12 primary melanoma-derived cell line; experiment: as above; assay type: cell-based, Human; settings: for reversibility of growth inhibition: after removal of RT inhibitors, within one or two 96 h-cycles; for cell growth: nevirapine 350 μM, efavirenz 15 μM, five 96 h-cycles
Procedure: as §1

[3] = tested on: A-375 melanoma; experiment: as above; assay type: cell-based, Human; settings: for reversibility of growth inhibition: after removal of RT inhibitors, within one or two 96 h-cycles; for cell growth: nevirapine 350 μM, efavirenz 15 μM, five 96 h-cycles
Procedure: as §1

[4] = tested on: primary TVM-A12 cells; experiment: Morphological differentiation (phase contrast, SEM, confocal microscopy); assay type: cell-based, Human; settings: compared to untreated cells
Procedure: (§2) A-375 and TVM-A12 cells were fixed with 4% para-formaldehyde for 10 min and permeabilized in 0.2% Triton-X 100 in PBS for 5 min. […] Confocal sections were taken at 0.5-1 μm intervals. A-375 and TVM-A12 cells were fixed in 2.5% glutaraldehyde in 0.1 M Millonig's phosphate buffer. After washing, cells were post-fixed with 1% OsO4 (1 h, 4° C.) in MPB and dehydrated using increasing acetone concentrations. Samples were critical-point dried using liquid CO2 and sputter-coated with gold before examination on a Stereoscan 240 scanning electron microscope (Cambridge Instr., Cambridge, UK).

[5] = tested on: A-375 melanoma cells; experiment: as above; assay type: cell-based, Human; settings: compared to DMSO-treated controls
Procedure: as §2

[6] = tested on: endogenous RT; settings: non-infected cells in vitro (ref. 19); cited from earlier work
[7] = tested on: H69 small cell lung carcinoma xenograft; experiment: Human tumor xenograft growth in athymic nude mice; assay type: in vivo; settings: 20 mg/kg s.c. daily five days a week, start one day or one week after inoculation; vs untreated
Procedure: (§3) Controls were injected with 50% DMSO.

[8] = tested on: PC3 xenograft; experiment: Human tumor xenograft growth in athymic nude mice; assay type: in vivo
Procedure: as §3

[9] = tested on: HT29 colon xenograft; experiment: Human tumor xenograft growth in athymic nude mice; assay type: in vivo
Procedure: as §3

[10] = tested on: A-375 melanoma xenograft; experiment: Human tumor xenograft growth in athymic nude mice; assay type: in vivo; settings: 20 mg/kg s.c. daily five days a week, start one day or one week after inoculation; vs untreated
Procedure: as §3

[11] = Procedure: Five-week old athymic nude mice (Harlan, Italy), kept in accordance with the European Union guidelines, were inoculated sub-cutaneously with A-375 melanoma (4×10^6), H-69 (10^7), PC3 (2×10^6) and HT-29 (10^6) cells in 100 μl PBS. […] Controls were injected with 50% DMSO. Treatment started one day or one week after tumor implant, and, in some experiments, was discontinued after 14 days. Tumor growth was monitored every other day by caliper measurements; volumes were calculated using the formula: […]
Cells were inoculated subcutaneously in the limb of athymic nude mice.

[12] = tested on: E-cadherin, c-myc, bcl-2 and cyclin D1 genes in A-375 melanoma cells; experiment: Gene expression by semiquantitative RT-PCR in RT-inhibited cultures; assay type: cell-based, Human; settings: four cycles, compared to controls
Procedure: Each oligo pair was used in sequential amplification series with increasing numbers (25 to 40) of cycles. PCR products were electrophoresed, transferred to membranes and hybridized for 16 h at 42 C.° with [^32P]γ-ATP end-labelled internal oligonucleotides. The intensity of the amplification signal was measured by densitometry in at least three independent experiments for each gene. [table] […] This was investigated in semiquantitative RT-PCR analysis of cultures treated with DMSO only, or nevirapine or efavirenz for four cycles. In A-375 melanoma cells, we focussed on a set of four genes: the E-cadherin gene, involved in cell-cell adhesion and expressed in differentiated but not in tumor cells (24); and the c-myc, bcl-2 (25) and cyclin D1 (26) genes, which are directly implicated in melanoma cell proliferation and tumor growth.

[13] = tested on: PC3 prostate cancer cells; experiment: Tumorigenicity of efavirenz-pretreated PC3 cells inoculated in nude mice; assay type: in vivo
Procedure: as §3
We also investigated whether pretreatment of transformed cells with efavirenz would modify the tumorigenic potential of derived xenografts. PC3 prostate cancer cells were cultured with 20 μM efavirenz for two 96 h-cycles, a time that was sufficient for induction of the PSA and AR genes (FIG. 3B), and subsequently inoculated in nude mice.
Untreated cells were inoculated in parallel batches of animals. Efavirenz-pretreated, or untreated, PC3 cell xenografts were then either continuously treated with efavirenz in vivo or were left untreated. […] As summarized in FIG. 6 B, efavirenz-pretreated PC3 cells developed slowly-growing xenografts in 65% of the inoculated animals, compared to 100% using untreated cells. […] Thus, efavirenz attenuates the tumorigenic potential of transformed cells.

[14] = Preliminary in vivo assays of RT inhibitors
[15] = 20 mg/kg s.c. daily five days a week, start one day or one week after inoculation, vs untreated
[16] = treated from day one, treatment discontinuation after day 15

Row | Structure (SMILES) | reversibility of growth inhibition [1] | cell growth [1] | reversibility of growth inhibition [2] | cell growth [2] | reversibility of growth inhibition [3] | cell growth [3] | morphological differentiation [5] | inhibition of the enzymatic activity of the endogenous RT [6] | also measured
1 | Cc1ccnc2c1NC(=O)c1cccnc1N2C1CC1 [nevirapine, Nevirapine] | reversible | effectively reduce cell growth | reversible | effectively reduce cell growth | reversible | effectively reduce cell growth | became evident within four-five days | inhibit the enzymatic activity of the endogenous RT | morphological differentiation [4]: formed instead typical branched dendrites
2 | O=C1Nc2ccc(Cl)cc2[C@@](C#CC2CC2)(C(F)(F)F)O1 [efavirenz, Efavirenz] | reversible | effectively reduce cell growth | reversible | effectively reduce cell growth | reversible | effectively reduce cell growth | became evident within four-five days | inhibit the enzymatic activity of the endogenous RT | tumor growth [7]: markedly reduced; tumor growth [8, 15]: markedly reduced; reversibility of inhibition of tumor growth [8, 16]: reversible in vivo; tumor growth [9, 15]: markedly reduced; reversibility of inhibition of tumor growth [9, 16]: reversible in vivo; tumor growth [10]: markedly reduced; animal death or signs of toxicity ([11]; 4 to 40 mg/kg, all animal groups): no animal death or explicit signs of toxicity in any of the groups; animals with significant decrease of body weight ([11]; group treated with 40 mg/kg): more than 60 % of animals; expression of the cyclin D1 gene [12]: failed to down-regulate cyclin D1 expression; inoculated animals developing xenografts ([13]; cells pretreated with 20 μM efavirenz for two 96 h-cycles, no treatment in vivo, 100% using untreated cells, 30 days): 65 % of the inoculated animals; xenograft growth ([13]; efavirenz-pretreated cells, no treatment in vivo): xenografts grew more slowly; xenograft growth ([13]; pretreated cells and further treated with efavirenz in vivo): the growth curve was flat; animals developing a tumor ([13]; pretreated cells and further treated with efavirenz in vivo, 30 days): 40 % of the animals; in vivo effectiveness relative to nevirapine [14]: higher in vivo effectiveness than nevirapine
